Data on 16 compounds can be found in EP3708565A1, “PYRIMIDINYLOXYPHENYLAMIDINES AND THE USE THEREOF AS FUNGICIDES” (Bayer AG, priority 2020, dated 2020).

The test system of series [1] is Sphaerotheca fuliginea. As to the kind of experiment: in vivo preventive test on Sphaerotheca fuliginea (powdery mildew on cucurbits). As to conditions: 500 ppm of active ingredient, young gherkin plants sprayed, inoculated after 24 hours, evaluated 8 days after the inoculation; for pest or weed control at 500 ppm: Podosphaera fuliginea, 192 h, read-out: efficacy. How it is done: Example: in vivo preventive test on Sphaerotheca fuliginea (powdery mildew on cucurbits)
(§1) The active ingredients were made soluble and homogenized in a mixture of Dimethyl sulfoxide/Acetone/ /Tween® 80 and then diluted in water to the desired concentration.
The young plants of gherkin were treated by spraying the active ingredient prepared as described above. Control plants were treated only with an aqueous solution of Acetone/Dimethyl sulfoxide/ […].
After 24 hours, the plants were contaminated by spraying the leaves with an aqueous suspension of Sphaerotheca fuliginea spores. The contaminated gherkin plants were incubated for 8 days at 20°C and at 70-80% relative humidity.
The test was evaluated 8 days after the inoculation. 0% means an efficacy which corresponds to that of the control plants while an efficacy of 100% means that no disease was observed.

Series [2] can be described thus: LogP measurement by HPLC on reversed phase columns (EEC directive 79/831 Annex V.A8). In kind it is physicochemical. How it is done: If more than one LogP value is available within the same method, all the values are given and separated by "+".
Lambda-max-values were determined using UV-spectra from 200 nm to 400 nm and the peak values of the chromatographic signals.

Series [3] concerns Puccinia recondita. As to the kind of experiment: in vivo preventive test on Puccinia recondita (brown rust on wheat). The note with it: for efficacy: 500 ppm; for pest or weed control at 500 ppm: Puccinia recondita, 264 h, 500 ppm of active ingredient, young wheat plants sprayed, inoculated after 24 hours, evaluated 11 days after the inoculation, read-out: efficacy. How it is done:
Example: in vivo preventive test on Puccinia recondita (brown rust on wheat)
as §1
The young plants of wheat were treated by spraying the active ingredient prepared as described above. Control plants were treated only with an aqueous solution of Acetone/Dimethyl sulfoxide/ Tween® 80.
After 24 hours, the plants were contaminated by spraying the leaves with an aqueous suspension of Puccinia recondita spores. The contaminated wheat plants were incubated for 24 hours at 20°C and at 100% relative humidity and then for 10 days at 20°C and at 70-80% relative humidity.
The test was evaluated 11 days after the inoculation. 0% means an efficacy which corresponds to that of the control plants while an efficacy of 100% means that no disease was observed.

Series [4] relates to Phakospora pachyrhizi. In words: in vivo preventive test on Phakospora pachyrhizi (soybean rust). As to conditions: for efficacy: 500 ppm; for pest or weed control at 500 ppm: Glycine max, 288 h, 500 ppm of active ingredient, young soybean plants sprayed, inoculated after 24 hours, evaluated 12 days after the inoculation, read-out: efficacy. On the procedure: Example: in vivo preventive test on Phakospora pachyrhizi (soybean rust)
as §1
The young plants of soybean were treated by spraying the active ingredient prepared as described above. Control plants were treated only with an aqueous solution of Acetone/Dimethyl sulfoxide/ […].
After 24 hours, the plants were contaminated by spraying the leaves with an aqueous suspension of Phakosporapachyrhizi spores. The contaminated soybean plants were incubated for 24 hours at 24°C and at 100% relative humidity and then for 11 days at 24°C and at 70-80% relative humidity.
The test was evaluated 12 days after the inoculation. 0% means an efficacy which corresponds to that of the control plants while an efficacy of 100% means that no disease was observed.

Where [5] appears, read: method [a]: LC-UV, acidic range, 0.1% formic acid in water and acetonitrile as eluent.
Setting [6] is: method [b]: LC-UV, neutral range, 0.001 molar ammonium acetate solution in water and acetonitrile as eluent.
The mark [7] stands for this setting: reversed phase HPLC column, method [a]: LC-UV, acidic range, 0.1% formic acid in water and acetonitrile as eluent.
[8] abbreviates: reversed phase HPLC column, method [b]: LC-UV, neutral range, 0.001 molar ammonium acetate solution in water and acetonitrile as eluent.

Each structure is given as a SMILES string.

One may read the chromatographic logP as a lipophilicity value derived from retention on a column. Read a low chromatographic logP as lower lipophilicity. Turning to `CCSc1nccc(Oc2cc(C)c(N=CN(C)CC)cc2C)n1` [I.027, N-ethyl-N'-[4-(2-ethylsulfanylpyrimidin-4-yl)oxy-2,5-dimethylphenyl]-N-methylmethanimid-amide], the efficacy result in series [1], in series [3] and in series [4] was “at least 70%” in each case. Besides, the chromatographic logP in series [2] (setting [5]) turned out to be 1.27; in series [2] (setting [6]), 4.12.
Consider `CCN(C)C=Nc1cc(C)c(Oc2ccnc(SC(C)C)n2)cc1C` [I.028, N'-[2,5-dimethyl-4-(2-propan-2-ylsulfanylpyrimidin-4-yl)oxyphenyl]-N-ethyl-N-methylmethan-imidamide], for which the pest or weed control at 500 ppm in series [1], in series [3] and in series [4] was at least 70% in each case. Also, the figures for the chromatographic logP in series [2] (setting [7]) and in series [2] (setting [8]) were 1.45 and 4.54, respectively.
Take `CCCSc1nccc(Oc2cc(C)c(N=CN(C)CC)cc2C)n1` [I.029, N'-[2,5-dimethyl-4-(2-propylsulfanylpyrimidin-4-yl)oxyphenyl]-N-ethyl-N-methylmethanimid-amide]: the efficacy result in series [1], in series [3] and in series [4] was “at least 70%” in each case. Besides, the values for the chromatographic logP in series [2] (setting [5]) and in series [2] (setting [6]) were 1.46 and 4.61, respectively.
As for `CCN(C)C=Nc1cc(C)c(Oc2ccnc(C(F)(F)F)n2)cc1C` [I.030, N'-[2,5-dimethyl-4-[2-(trifluoromethyl)pyrimidin-4-yl]oxyphenyl]-N-ethyl-N-methylmethan-imidamide], the pest or weed control at 500 ppm in series [1], in series [3] and in series [4] was at least 70% throughout. Also, the figures for the chromatographic logP in series [2] (setting [7]) and in series [2] (setting [8]) were 1.24 and 3.82, respectively.
For the compound `CCN(C)C=Nc1cc(C)c(Oc2ccnc(SCC(F)(F)F)n2)cc1C` [I.031, N'-[2,5-dimethyl-4-[2-(2,2,2-trifluoroethylsulfanyl)pyrimidin-4-yl]oxyphenyl]-N-ethyl-N-methylmethanimidamide], the pest or weed control at 500 ppm in series [1], in series [3] and in series [4] was at least 70% in each case. The values for the chromatographic logP in series [2] (setting [7]) and in series [2] (setting [8]) were 1.52 and 4.37, respectively.
Consider `CCN(C)C=Nc1cc(C)c(Oc2cc(C)nc(SC)n2)cc1C` [I.033, N'-[2,5-dimethyl-4-(6-methyl-2-methylsulfanylpyrimidin-4-yl)oxyphenyl]-N-ethyl-N-methyl-methanimidamide], for which the pest or weed control at 500 ppm in series [1], in series [3] and in series [4] was at least 70% in each case. For the same compound, the figures for the chromatographic logP in series [2] (setting [7]) and in series [2] (setting [8]) were 1.34 and 4.16, respectively.
Turning to `CCN(C)C=Nc1cc(C)c(Oc2ccnc(/C=C/C(C)(C)C)n2)cc1C` [I.034, N'-[4-[2-[(E)-3,3-dimethylbut-1-enyl]pyrimidin-4-yl]oxy-2,5-dimethylphenyl]-N-ethyl-N-methylmethanimidamide], the pest or weed control at 500 ppm in series [1], in series [3] and in series [4] was at least 70% throughout. For the same compound, the chromatographic logP in series [2] (setting [7]) was 1.66; in series [2] (setting [8]), 4.94.
Take `CCCSc1nccc(Oc2cc(C)c(N=CN(C)CC)cc2C(F)F)n1` [I.036, N'-[5-(difluoromethyl)-2-methyl-4-(2-propylsulfanylpyrimidin-4-yl)oxyphenyl]-N-ethyl-N-methylmethanimidamide]: the pest or weed control at 500 ppm in series [1], in series [3] and in series [4] was at least 70% in each case. The chromatographic logP in series [2] (setting [7]) stood at 1.55.
`CCN(C)C=Nc1cc(Br)c(Oc2ccnc(Sc3ccccc3)n2)cc1C` [I.037, N'-[5-bromo-2-methyl-4-(2-phenylsulfanylpyrimidin-4-yl)oxyphenyl]-N-ethyl-N-methylmethan-imidamide]: the pest or weed control at 500 ppm in series [1], in series [3] and in series [4] was at least 70% each time. Also, the chromatographic logP in series [2] (setting [7]) was found to be 1.69; in series [2] (setting [8]), 4.8.
On to `CCN(C)C=Nc1cc(C)c(Oc2ccnc(Sc3ccccc3)n2)cc1C` [I.039, N'-[2,5-dimethyl-4-(2-phenylsulfanylpyrimidin-4-yl)oxyphenyl]-N-ethyl-N-methylmethanimid-amide], for which the efficacy entry in series [1], in series [3] and in series [4] was “at least 70%” in each case. The chromatographic logP is 1.52 in series [2] (setting [5]) and 4.55 in series [2] (setting [6]).
Turning to `CCN(C)C=Nc1cc(C)c(Oc2ccnc(SCC3CC3)n2)cc1C` [I.040, N'-[4-[2-(cyclopropylmethylsulfanyl)pyrimidin-4-yl]oxy-2,5-dimethylphenyl]-N-ethyl-N-methylmethanimidamide], the pest or weed control at 500 ppm in series [1], in series [3] and in series [4] was at least 70% throughout. In addition, in series [2] (setting [7]), the chromatographic logP amounted to 1.55.
Turning to `CCN(C)C=Nc1cc(C)c(Oc2ccnc(OC3CCCC3)n2)cc1C` [I.041, N'-[4-(2-cyclopentyloxypyrimidin-4-yl)oxy-2,5-dimethylphenyl]-N-ethyl-N-methylmethanimid-amide], the efficacy result in series [1], in series [3] and in series [4] was “at least 70%” throughout. For the same compound, the chromatographic logP in series [2] (setting [5]) amounted to 1.6; in series [2] (setting [6]) it was 4.67.
For `CCN(C)C=Nc1cc(C)c(Oc2ccnc(SCc3ccccc3)n2)cc1C` [I.042, N'-[4-(2-benzylsulfanylpyrimidin-4-yl)oxy-2,5-dimethylphenyl]-N-ethyl-N-methylmethanimid-amide], the efficacy result in series [1], in series [3] and in series [4] was “at least 70%” throughout. Besides, the chromatographic logP in series [2] (setting [5]) is 1.63; in series [2] (setting [6]), 4.82.
`CCN(C)C=Nc1cc(C)c(Oc2ccnc(SCC[Si](C)(C)C)n2)cc1C` [I.043, N'-[2,5-dimethyl-4-[2-(2-trimethylsilylethylsulfanyl)pyrimidin-4-yl]oxyphenyl]-N-ethyl-N-methylmethanimidamide]: the pest or weed control at 500 ppm in series [1], in series [3] and in series [4] was at least 70% each time. The same compound gave a chromatographic logP in series [2] (setting [5]) of 2.17.
On to `CCN(C)C=Nc1cc(C#N)c(Oc2ccnc(C(C)(C)C)n2)cc1C` [I.044, N'-[4-(2-tert-butylpyrimidin-4-yl)oxy-5-cyano-2-methylphenyl]-N-ethyl-N-methylmethanimid-amide], for which the efficacy result in series [1], in series [3] and in series [4] was “at least 70%” throughout. Also, the chromatographic logP in series [2] (setting [5]) was determined as 1.41; in series [2] (setting [6]), 4.29.
As for `CCN(C)C=Nc1cc(C)c(Oc2ccnc(SC(C)(C)C)n2)cc1Cl` [I.045, N'-[4-(2-tert-butylsulfanylpyrimidin-4-yl)oxy-2-chloro-5-methylphenyl]-N-ethyl-N-methyl-methanimidamide], the pest or weed control at 500 ppm in series [1], in series [3] and in series [4] was at least 70% each time. Besides, the chromatographic logP in series [2] (setting [7]) was 1.63; in series [2] (setting [8]) it was 4.5.
